From ChEMBL document CHEMBL1158169, “Functionalized chalcones with basic functionalities have antibacterial activity against drug sensitive Staphylococcus aureus” (Eur J Med Chem, 2008)
In brackets after ≈: the same amount, converted by molar mass.

Legend:
Staphylococcus aureus [1] = assay: Antibacterial activity against methicillin-sensitive Staphylococcus aureus ATCC 13150 after 20 hrs by microdilution assay; assay type: functional
Escherichia coli = assay: Antibacterial activity against Escherichia coli ATCC 49696 after 20 hrs by microdilution assay; assay type: functional; conditions: ATCC 49696, 20 h
[2] = Toxicity in sheep erythrocytes assessed as hemolysis at 100 uM after 90 mins; assay type: cell-based, Ovis aries, Erythrocyte; conditions: read-out: Activity
Staphylococcus aureus [3] = assay: Antibacterial activity against Staphylococcus aureus; assay type: functional
Staphylococcus aureus [4] = assay: Antibacterial activity against methicillin-resistant Staphylococcus aureus; assay type: functional
[5] = Toxicity in sheep erythrocytes assessed as hemolysis at 25 uM after 90 mins; assay type: cell-based, Ovis aries, Erythrocyte; conditions: read-out: Activity
[6] = Toxicity in sheep erythrocytes assessed as hemolysis at 300 uM after 90 mins; assay type: cell-based, Ovis aries, Erythrocyte; conditions: read-out: Activity
[7] = Staphylococcus aureus, ATCC 13150, 20 h, read-out: MIC

| SMILES | MIC (Staphylococcus aureus [1]; [7]) | MIC (Escherichia coli) | further results |
| --- | --- | --- | --- |
| COc1ccc(C(=O)/C=C/c2ccc(Cl)cc2)c(OC)c1 | > 100 µM | > 100 µM | – |
| CN1CCC(c2ccc(O)c(C(=O)/C=C/c3ccccc3Cl)c2)CC1 | 25 µM (≈ 8.9 µg/mL) | > 100 µM | hemolysis at 1.5 h, 100 µM [2]: 14.8% |
| COc1cc(OC)c(C2CCN(C)CC2)cc1C(=O)/C=C/c1ccc(C)cc1 | > 100 µM | > 100 µM | – |
| COc1ccccc1/C=C/C(=O)c1cc(C2CCN(C)CC2)c(OC)cc1OC | > 100 µM | > 100 µM | – |
| COc1ccc(/C=C/C(=O)c2cc(C3CCN(C)CC3)c(OC)cc2OC)cc1 | > 100 µM | > 100 µM | – |
| COc1cc(OC)c(C2CCN(C)CC2)cc1C(=O)/C=C/c1ccccc1F | > 100 µM | > 100 µM | – |
| COc1cc(OC)c(C2CCN(C)CC2)cc1C(=O)/C=C/c1ccc(C(F)(F)F)cc1 | 50 µM (≈ 21.7 µg/mL) | > 100 µM | – |
| COc1cc(OC)c(C2CCN(C)CC2)c(O)c1C(=O)/C=C/c1ccccc1Cl | 50 µM (≈ 20.8 µg/mL) | > 100 µM | – |
| COc1cc(OC)c(C2CCN(C)CC2)c(O)c1C(=O)/C=C/c1ccc(Cl)cc1 | 25 µM (≈ 10.4 µg/mL) | > 100 µM | hemolysis at 1.5 h, 100 µM [2]: 5.5% |
| COc1ccc(C(=O)/C=C/c2ccccn2)c(OC)c1 | > 100 µM | > 100 µM | – |
| COc1ccc(C(=O)/C=C/c2ccc(N3CCN(C)CC3)cc2)c(OC)c1 | > 100 µM | > 100 µM | – |
| COc1cc(OC)c(C2CCN(C)CC2)c(O)c1C(=O)/C=C/c1ccccc1 | > 100 µM | > 100 µM | – |
| COc1cc(OC)c(C2CCN(C)CC2)c(O)c1C(=O)/C=C/c1ccccc1F | > 100 µM | > 100 µM | – |
| COc1cc(OC)c(C2CCN(C)CC2)c(O)c1C(=O)/C=C/c1ccc(C)cc1 | 6.25 µM (≈ 2.47 µg/mL) | > 100 µM | hemolysis at 1.5 h, 100 µM [2]: 6.7% |
| COc1ccccc1/C=C/C(=O)c1c(OC)cc(OC)c(C2CCN(C)CC2)c1O | 50 µM (≈ 20.6 µg/mL) | > 100 µM | – |
| COc1cccc(/C=C/C(=O)c2c(OC)cc(OC)c(C3CCN(C)CC3)c2O)c1 | > 100 µM | > 100 µM | – |
| COc1cc(OC)c(C2CCN(C)CC2)c(O)c1C(=O)/C=C/c1cccc(Cl)c1 | 6.25 µM (≈ 2.6 µg/mL) | > 100 µM | hemolysis at 1.5 h, 100 µM [2]: 6.5% |
| COc1cc(OC)c(C2CCN(C)CC2)c(O)c1C(=O)/C=C/c1ccc(C#N)cc1 | > 100 µM | > 100 µM | – |
| COc1cc(OC)c(C2CCN(C)CC2)cc1C(=O)/C=C/c1ccc(Cl)cc1 | > 100 µM | > 100 µM | – |
| COc1cc(OC)c(C2CCN(C)CC2)cc1C(=O)/C=C/c1ccncc1 | > 100 µM | > 100 µM | – |
| COc1cc(OC)c(C2CCN(C)CC2)c(O)c1C(=O)/C=C/c1ccc(N(C)C)cc1 | 25 µM (≈ 10.6 µg/mL) | > 100 µM | hemolysis at 1.5 h, 100 µM [2]: 10.3% |
| COc1cc(OC)c(C2CCN(C)CC2)cc1C(=O)/C=C/c1cccnc1 | > 100 µM | > 100 µM | – |

| SMILES | MIC (Staphylococcus aureus [1]; [7]) | MIC (Escherichia coli) | further results |
| --- | --- | --- | --- |
| COc1cc(OC)c(N2CCC(N3CCCCC3)CC2)cc1C(=O)/C=C/c1ccccc1Cl | > 100 µM | > 100 µM | – |
| COc1cc(OC)c(C2CCN(C)CC2)cc1C(=O)/C=C/c1ccccn1 | > 100 µM | > 100 µM | – |
| COc1cc(O)c(C(=O)/C=C/c2ccccc2)cc1C | > 100 µM | > 100 µM | – |
| COc1ccc(C2CCN(C)CC2)cc1C(=O)/C=C/c1ccccc1Cl | > 100 µM | > 100 µM | – |
| COc1ccc(C(=O)/C=C/c2ccccc2Cl)c(OC)c1 | > 100 µM | > 100 µM | – |
| COc1ccc(C2CCN(C)CC2)cc1C(=O)/C=C/c1ccc(Cl)cc1 | > 100 µM | > 100 µM | – |
| COc1ccc(C2CCN(C)CC2)cc1C(=O)/C=C/c1ccccc1 | 100 µM (≈ 33.5 µg/mL) | > 100 µM | – |
| CCN1CCC(c2cc(C(=O)/C=C/c3ccccc3Cl)c(OC)cc2OC)CC1 | > 100 µM | > 100 µM | – |
| CCN1CCC(c2cc(C(=O)/C=C/c3ccccc3)c(OC)cc2OC)CC1 | > 100 µM | > 100 µM | – |
| CCN1CCC(c2cc(C(=O)/C=C/c3ccc(Cl)cc3)c(OC)cc2OC)CC1 | 50 µM (≈ 20.7 µg/mL) | > 100 µM | – |
| CCN1CCC(c2cc(C(=O)/C=C/c3ccc(N4CCN(C)CC4)cc3)c(OC)cc2OC)CC1 | > 100 µM | > 100 µM | – |
| CCN1CCC(c2cc(C(=O)/C=C/c3ccncc3)c(OC)cc2OC)CC1 | > 100 µM | > 100 µM | – |
| COc1cc(OC)c(C2CCN(C)CC2)cc1C(=O)/C=C/c1ccc(N2CCN(C)CC2)cc1 | > 100 µM | > 100 µM | – |
| COc1cc(O)c(C(=O)/C=C/c2ccccc2Cl)cc1C | > 100 µM | > 100 µM | – |
| COc1cc(OC)c(C2CCN(C)CC2)c(O)c1C(=O)/C=C/c1ccc(C(F)(F)F)cc1 | > 100 µM | > 100 µM | – |
| COc1cc(OC)c(C2CCN(C)CC2)cc1C(=O)/C=C/c1ccccc1C | > 100 µM | > 100 µM | – |
| COc1cc(OC)c(C2CCN(C)CC2)cc1C(=O)/C=C/c1ccccc1 | > 100 µM | > 100 µM | – |
| COc1cc(OC)c(C2CCN(C)CC2)c(O)c1C(=O)/C=C/c1ccccc1C | 50 µM (≈ 19.8 µg/mL) | > 100 µM | – |
| COc1cc(OC)c(C2CCN(C)CC2)c(O)c1C(=O)/C=C/c1ccc(N2CCN(C)CC2)cc1 | > 100 µM | > 100 µM | – |
| COc1ccc(/C=C/C(=O)c2c(OC)cc(OC)c(C3CCN(C)CC3)c2O)cc1 | 50 µM (≈ 20.6 µg/mL) | > 100 µM | – |
| COc1cc(OC)c(C2CCN(C)CC2)c(O)c1C(=O)/C=C/c1ccc(F)cc1 | > 100 µM | > 100 µM | – |
| COc1ccc(C(=O)/C=C/c2cccnc2)c(OC)c1 | > 100 µM | > 100 µM | – |

| SMILES | MIC (Staphylococcus aureus [1]; [7]) | MIC (Escherichia coli) | further results |
| --- | --- | --- | --- |
| COc1ccc(/C=C/C(=O)c2c(OC)cc(OC)c(C3CCN(C)CC3)c2O)c(OC)c1 | > 100 µM | > 100 µM | – |
| COc1cc(O)c(C(=O)/C=C/c2ccccc2OC)cc1C | > 100 µM | > 100 µM | – |
| COc1ccc(/C=C/C(=O)c2cccc(N3CCNCC3)c2)c(OC)c1 | 100 µM (≈ 35.2 µg/mL) | > 100 µM | – |
| COc1cc(OC)c(N2CCC(N3CCCCC3)CC2)cc1C(=O)/C=C/c1ccccc1F | > 100 µM | > 100 µM | – |
| O=C(/C=C/c1ccc(Cl)cc1)c1cccc(N2CCNCC2)c1 | 25 µM (≈ 8.17 µg/mL) | > 100 µM | hemolysis at 1.5 h, 100 µM [2]: 11.6% |
| COc1cc(O)c(C(=O)/C=C/c2ccc(F)cc2)cc1C1CCN(C)CC1 | > 100 µM | > 100 µM | – |
| O=C(/C=C/c1ccccc1)c1cccc(N2CCNCC2)c1 | > 100 µM | > 100 µM | – |
| O=C(O)c1ccc(C(=O)/C=C/c2cc(Br)cc(Br)c2)cc1 | – | – | MIC (Staphylococcus aureus [3]): 2 µM (≈ 0.82 µg/mL) |
| O=C(/C=C/c1ccccc1Cl)c1cccc(N2CCCCC2)c1 | > 100 µM | > 100 µM | – |
| O=C(/C=C/c1ccc(Cl)cc1)c1cccc(N2CCCCC2)c1 | > 100 µM | > 100 µM | – |
| COc1ccc(/C=C/C(=O)c2cccc(N3CCCCC3)c2)c(OC)c1 | > 100 µM | > 100 µM | – |
| Cc1cc(C)cc(-c2ccc(N3CCNCC3)c(/C=C/C(=O)c3ccc(NCCN(C)C)cc3)c2)c1 | – | – | MIC (Staphylococcus aureus [4]): 2 µM (≈ 0.965 µg/mL) |
| O=C(/C=C/c1ccccc1Cl)c1cccc(N2CCNCC2)c1 | > 100 µM | > 100 µM | – |
| O=C(O)c1ccc(C(=O)/C=C/c2cc(C(F)(F)F)cc(C(F)(F)F)c2)cc1 | – | – | MIC (Staphylococcus aureus [3]): 2 µM (≈ 0.777 µg/mL) |
| O=C(/C=C/c1ccccc1)c1cccc(N2CCCCC2)c1 | > 100 µM | > 100 µM | – |
| COc1ccc(C(=O)/C=C/c2ccccc2)c(OC)c1 | > 100 µM | > 100 µM | – |
| COc1cc(OC)c(C2CCN(C)CC2)cc1C(=O)/C=C/c1ccccc1Cl (stereo in doubt; 1-5) | – | > 100 µM | MIC (Staphylococcus aureus [1]): 25 µM (≈ 10 µg/mL) |
| COc1cc(OC)c(C2CCN(C)CC2)cc1C(=O)/C=C/c1ccccc1Cl (stereo in doubt; 7-140) | – | – | MIC (Staphylococcus aureus [1]): >100 µM |
| COc1ccc(C(=O)/C=C/c2ccncc2)c(OC)c1 [DILMEFONE] | > 100 µM | > 100 µM | – |
| C=CC(C)(C)c1cc(/C=C/C(=O)c2ccc(O)cc2)c(OC)cc1O [LICOAGROCHACONE A] | 6.3 µM (≈ 2.13 µg/mL) | > 100 µM | hemolysis at 1.5 h, 100 µM [2]: 19.9%; hemolysis at 1.5 h, 25 µM [5]: 11.6%; hemolysis at 1.5 h, 300 µM [6]: 47.9%; MIC (Staphylococcus aureus [4]): 18.4 µM (≈ 6.23 µg/mL) |
| CC1(C)S[C@@H]2[C@H](NC(=O)Cc3ccccc3)C(=O)N2[C@H]1C(=O)O [PENICILLIN G] | 0.1 µM (≈ 0.0334 µg/mL) | – | – |
